Measurements reported in patent publication US8686126B2, “HBV drug resistance methods” (priority 2002, dated 2014).

Test system: HBsAg
Assay: Serum levels of HBsAg by modified Laurell electrophoresis in HBV-infected patient No. 7
Format: in vivo
Conditions: lamivudine treatment, just after breakthrough virus emerged
Description: HBsAg, anti-HBs, HBeAg, anti-HBe, and anti-HCV were determined by the microparticle enzyme-immunoassay ([…]) method (Abbott Laboratories, North Chicago, Ill., US). Anti-HDV enzyme-immunoassay method was performed as per the methodology supplied by the manufacturer (Abbott Laboratories, North Chicago, Ill., US). Serum levels of HBsAg were determined by a modified Laurell electrophoresis system (Gerlich et al., 1975). HBV-DNA levels were tested by using a commercial liquid-hybridization assay (Digene, Maryland, US), with the lower limit of detection of this assay 5 pg/mL of viral DNA.
The HBsAg level of the patient was 1.19 μg/mL at the beginning of the lamivudine treatment and became undetectable after 4 months.

Nc1ccn([C@@H]2CS[C@H](CO)O2)c(=O)n1 [lamivudine, beta-L-(−)-2′,3′-dideoxy-3′-thiacytidine]
HBsAg level: 10.8 µg/mL
